Activity calls are given as the source filed them. The calls are words filed in the database; no cut-off is given here.
Legend:
[1] = target: Synaptic vesicle glycoprotein 2A (Mus musculus, UniProt Q9JIS5); assay: Binding affinity to mouse SV2A in presence of levetiracetam by radioligand binding assay
[2] = organism: Homo sapiens; assay: Binding affinity to TTX-sensitive sodium channel (unknown origin) at 100 uM
[3] = organism: Mus musculus; assay: animal or person; details: CD-1, 0.5 h
[4] = system: Mus musculus; assay: Antiseizure activity against electrical stimulus induced seizure in ip dosed CD-1 mouse model assessed as normal behavior within 10 seconds after stimulation at 6 Hz and 32 mA for 3 secs pretreated for 0.5 hr by psychomotor seizure test; format: functional, organism-based
[5] = system: Mus musculus; assay: Antiseizure activity against ScPTZ-induced seizure in ip dosed CD-1 mouse model assessed as clonic seizures pretreated for 0.5 hrs and measured after 30 mins by subcutaneous pentylenetetrazole test; format: functional, organism-based
[6] = system: Mus musculus; assay: Antiseizure activity against electrical stimulus induced seizure in ip dosed CD-1 mouse model assessed as reduction in hindlimb tonic extension pretreated for 1 hr by maximal electroshock seizure test; format: functional, organism-based
[7] = system: Mus musculus; assay: Antiseizure activity against ScPTZ-induced seizure in ip dosed CD-1 mouse model assessed as clonic seizures pretreated for 1 hr and measured after 30 mins by subcutaneous pentylenetetrazole test; format: functional, organism-based
[8] = system: Mus musculus; assay: Anti-seizure activity against electrical stimulus induced seizure in ip dosed CD-1 mouse model assessed as normal behavior within 10 seconds after stimulation at 6 Hz and 32 mA for 3 secs pretreated for […] by psychomotor seizure test; format: functional, organism-based
[9] = system: Mus musculus; assay: Antiseizure activity against ScPTZ-induced seizure in ip dosed CD-1 mouse model assessed as clonic seizures pretreated for […] and measured after 30 mins by subcutaneous pentylenetetrazole test; format: functional, organism-based
[10] = target: Voltage-dependent T-type calcium channel subunit alpha-1H (Homo sapiens) (UniProt O95180); assay: Binding affinity to human Cav3.2 at 100 uM by Qpatch electrophysiological assay
Sequence of Voltage-dependent T-type calcium channel subunit alpha-1H (Homo sapiens) (O95180 whole entry): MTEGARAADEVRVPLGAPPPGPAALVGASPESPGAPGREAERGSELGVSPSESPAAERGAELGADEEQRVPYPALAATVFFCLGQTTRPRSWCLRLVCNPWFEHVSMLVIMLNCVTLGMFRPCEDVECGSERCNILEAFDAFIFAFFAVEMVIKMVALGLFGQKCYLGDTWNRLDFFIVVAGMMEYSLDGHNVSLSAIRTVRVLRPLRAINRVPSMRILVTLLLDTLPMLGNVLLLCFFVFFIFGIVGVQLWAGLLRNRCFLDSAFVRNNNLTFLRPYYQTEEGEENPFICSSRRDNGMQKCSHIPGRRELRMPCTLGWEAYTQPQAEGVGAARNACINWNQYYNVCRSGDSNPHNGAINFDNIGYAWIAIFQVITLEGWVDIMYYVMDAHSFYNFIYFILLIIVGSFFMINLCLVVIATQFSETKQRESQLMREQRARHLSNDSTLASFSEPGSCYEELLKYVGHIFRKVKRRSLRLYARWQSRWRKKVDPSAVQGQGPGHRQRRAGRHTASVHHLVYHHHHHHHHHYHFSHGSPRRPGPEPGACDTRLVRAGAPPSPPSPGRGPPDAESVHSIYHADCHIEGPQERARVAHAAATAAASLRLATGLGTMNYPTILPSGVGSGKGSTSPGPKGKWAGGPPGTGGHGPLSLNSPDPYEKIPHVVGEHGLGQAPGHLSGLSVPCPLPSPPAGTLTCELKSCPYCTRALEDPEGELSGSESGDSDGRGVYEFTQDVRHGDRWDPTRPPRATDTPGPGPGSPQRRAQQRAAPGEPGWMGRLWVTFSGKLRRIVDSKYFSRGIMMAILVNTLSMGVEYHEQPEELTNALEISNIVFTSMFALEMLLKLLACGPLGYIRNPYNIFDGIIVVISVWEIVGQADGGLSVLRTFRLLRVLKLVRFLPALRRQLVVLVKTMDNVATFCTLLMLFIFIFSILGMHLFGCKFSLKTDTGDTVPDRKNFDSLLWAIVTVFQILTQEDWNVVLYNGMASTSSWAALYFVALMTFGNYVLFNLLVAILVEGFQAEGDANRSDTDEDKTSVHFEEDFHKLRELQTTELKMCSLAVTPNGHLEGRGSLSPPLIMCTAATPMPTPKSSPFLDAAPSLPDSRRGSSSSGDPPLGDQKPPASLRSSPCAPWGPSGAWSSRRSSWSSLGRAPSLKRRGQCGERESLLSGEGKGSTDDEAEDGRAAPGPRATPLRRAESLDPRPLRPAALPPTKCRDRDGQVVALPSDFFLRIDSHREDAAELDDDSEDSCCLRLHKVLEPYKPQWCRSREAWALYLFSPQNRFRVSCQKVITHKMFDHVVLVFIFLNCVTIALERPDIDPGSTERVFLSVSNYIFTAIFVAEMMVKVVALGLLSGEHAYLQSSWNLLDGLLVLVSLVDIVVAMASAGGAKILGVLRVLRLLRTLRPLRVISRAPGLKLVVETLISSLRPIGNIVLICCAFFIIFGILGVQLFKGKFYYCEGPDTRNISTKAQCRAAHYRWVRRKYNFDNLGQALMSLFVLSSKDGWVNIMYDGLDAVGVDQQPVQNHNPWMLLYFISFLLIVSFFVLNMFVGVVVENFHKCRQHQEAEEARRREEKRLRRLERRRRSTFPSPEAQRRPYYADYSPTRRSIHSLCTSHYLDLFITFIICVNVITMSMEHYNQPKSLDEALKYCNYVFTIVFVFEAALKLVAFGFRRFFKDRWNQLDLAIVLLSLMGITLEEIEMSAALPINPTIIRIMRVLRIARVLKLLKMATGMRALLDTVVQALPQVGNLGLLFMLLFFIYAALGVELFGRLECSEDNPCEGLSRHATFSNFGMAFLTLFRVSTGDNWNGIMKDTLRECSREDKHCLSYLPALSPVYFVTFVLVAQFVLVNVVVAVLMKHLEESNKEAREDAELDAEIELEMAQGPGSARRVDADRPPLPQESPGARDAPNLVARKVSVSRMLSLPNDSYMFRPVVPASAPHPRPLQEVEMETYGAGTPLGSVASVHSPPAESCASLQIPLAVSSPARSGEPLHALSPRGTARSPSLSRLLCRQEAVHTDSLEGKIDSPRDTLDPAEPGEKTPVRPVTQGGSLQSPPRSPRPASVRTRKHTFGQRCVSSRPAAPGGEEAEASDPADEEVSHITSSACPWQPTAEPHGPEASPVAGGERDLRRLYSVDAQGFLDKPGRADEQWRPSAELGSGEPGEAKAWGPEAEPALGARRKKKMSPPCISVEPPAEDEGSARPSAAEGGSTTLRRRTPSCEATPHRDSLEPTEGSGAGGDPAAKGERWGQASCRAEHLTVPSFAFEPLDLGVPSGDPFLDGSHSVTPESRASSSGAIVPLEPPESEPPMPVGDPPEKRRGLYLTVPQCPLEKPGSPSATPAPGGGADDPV

Sequence of Synaptic vesicle glycoprotein 2A (Q9JIS5 whole entry): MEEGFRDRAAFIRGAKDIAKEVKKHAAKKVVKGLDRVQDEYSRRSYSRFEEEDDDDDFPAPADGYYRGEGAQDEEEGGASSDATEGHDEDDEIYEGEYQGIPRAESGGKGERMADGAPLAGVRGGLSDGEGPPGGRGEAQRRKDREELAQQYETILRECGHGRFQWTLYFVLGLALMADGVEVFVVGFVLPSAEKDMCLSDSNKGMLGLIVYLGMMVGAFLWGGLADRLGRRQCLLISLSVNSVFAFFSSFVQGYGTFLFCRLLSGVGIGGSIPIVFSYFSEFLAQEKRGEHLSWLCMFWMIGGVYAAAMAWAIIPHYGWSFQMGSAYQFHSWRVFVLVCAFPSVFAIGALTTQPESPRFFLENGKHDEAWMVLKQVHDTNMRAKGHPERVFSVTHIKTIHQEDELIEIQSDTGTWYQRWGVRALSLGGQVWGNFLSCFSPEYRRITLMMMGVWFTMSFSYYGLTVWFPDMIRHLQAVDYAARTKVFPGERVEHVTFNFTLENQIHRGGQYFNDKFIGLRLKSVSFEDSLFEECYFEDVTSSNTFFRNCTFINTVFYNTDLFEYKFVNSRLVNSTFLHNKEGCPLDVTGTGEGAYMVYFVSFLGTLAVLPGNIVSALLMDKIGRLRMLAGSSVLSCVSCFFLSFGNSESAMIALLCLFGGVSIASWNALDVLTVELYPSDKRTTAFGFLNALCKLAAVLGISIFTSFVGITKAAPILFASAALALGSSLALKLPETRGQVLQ

C[C@@H](C(=O)NCc1ccccc1)N1C(=O)CCC1=O
Ki [1]: > 250 µM

C[C@H](C(=O)NCc1ccccc1)N1C(=O)CCC1=O
Ki [1]: > 250 µM

COC[C@@H](NC(C)=O)C(=O)NCc1ccccc1 [LACOSAMIDE]
Activity [2]: Active | ED50 [3]: 92 mg/kg | EC50 [4]: 5.3 mg/kg

CCCC(CCC)C(=O)O [VALPROIC ACID]
EC50 [5]: 239.4 mg/kg | EC50 [4]: 130.6 mg/kg

C=C(C)[C@@H]1CCC(C)=C[C@H]1c1c(O)cc(CCCCC)cc1O [CANNABIDIOL]
EC50 [6]: 80 mg/kg | EC50 [7]: 120 mg/kg

CC[C@@H](C(N)=O)N1CCCC1=O
EC50 [6]: > 500 mg/kg

CCC1(C)CC(=O)NC1=O (stereo not drawn) [ETHOSUXIMIDE]
EC50 [8]: > 200 mg/kg | EC50 [9]: 140.4 mg/kg | Activity [10]: Active

— ChEMBL document CHEMBL5113514 (J Med Chem, 2022)
